Experimental findings from patent US20090093509A1, “Methods and Compositions for the Treatment of Pruritus” (priority 2007, published 2009) are described below.

Counter-ions that a name gives are not always drawn.

The data set in a line: pH of aqueous solution. The format is physicochemical. How it is done:
The pH of the formulations of the invention are greater than 3 and less than 7. For example, the pH can be 3-7, 3-6, 4-7, 4-6, or 4-5. The pH of the solution and the measured pH of the topical composition may not be the same. For the purposes of this specification, either pH may be relevant but it is preferred that the pH is defined as that in the aqueous phase and not in the final cream. The pH of a 0.1% w/v aqueous solution of nalmefene hydrochloride is 6.13 at 22.5° C.: the corresponding values for 1% and 5% solutions are 5.76 and 4.66.

As for `C=C1CC[C@@]2(O)[C@H]3Cc4ccc(O)c5c4[C@@]2(CCN3CC2CC2)[C@H]1O5` [nalmefene hydrochloride, 6-methylene-6-desoxy-N-cyclopropylmethyl-14-hydroxydihydronormorphine], the “pH of aqueous solution” value (0.1% w/v aqueous solution, 22.5° C.) is 6.13; the “pH of aqueous solution” value (1% solution) came to 5.76; the “pH of aqueous solution” value (5% solution) was determined as 4.66.
